Results from patent US9511091B2, “Rare earth metal compounds, methods of making, and methods of using the same” (Spectrum Pharmaceuticals, Inc., priority 2002, dated 2016).

Assays:
[1] = reactivity with respect to phosphate: phosphate removal from pH 3 Na2HPO4/HCl stock solution; assay type: binding; conditions: for rate of removal of phosphate compared with LaOCl of Example 1: FIG. 14, pH 3; for Initial 1st order rate constant k1: calculated from the experimental points for the first minute of the reaction, pH 3; for Fraction of PO4 remaining after 10 min: pH 3 stock solution, La 3 times the stoichiometric amount
Method: A desirable lanthanum carbonate hydroxide is LaCO3OH. […] To determine the reactivity of the lanthanum carbonate hydroxide compound with respect to phosphate, the following procedure was used. A stock solution containing 13.75 g/l of anhydrous Na2HPO4 and 8.5 g/l of HCl is prepared. The stock solution is adjusted to pH 3 by the addition of concentrated HCl. 100 ml of the stock solution is placed in a beaker with a stirring bar. A sample of lanthanum carbonate hydroxide powder is added to the solution. The amount of lanthanum carbonate hydroxide powder is such that the amount of La in suspension is 3 times the stoichiometric amount needed to react completely with the phosphate. Samples of the suspension are taken at intervals, through a filter that separated all solids from the liquid. The liquid sample is analyzed for phosphorous.
(§1) To determine the reactivity of the lanthanum compound with respect to phosphate, the following test was conducted. A stock solution containing 13.75 g/l of anhydrous Na2HPO4 and 8.5 g/l of HCl was prepared. The stock solution was adjusted to pH 3 by the addition of concentrated HCl. An amount of 100 ml of the stock solution was placed in a beaker with a stirring bar. The lanthanum oxychloride from above was added to the solution to form a suspension. The amount of lanthanum oxychloride was such that the amount of La in suspension was 3 times the stoichiometric amount needed to react completely with the phosphate. Samples of the suspension were taken at time intervals, through a filter that separated all solids from the liquid. The liquid sample was analyzed for phosphorous.
as §1, with “Lanthanum carbonate hydroxide powder made as described” for “The lanthanum oxychloride from”, “solution.” for “solution to form a suspension.”, “carbonate hydroxide powder” for “oxychloride”, “intervals” for “intervals,”
(§2) To determine the reactivity of this lanthanum compound with respect to phosphate, the following test was conducted. A stock solution containing 13.75 g/l of anhydrous Na2HPO4 and 8.5 g/l of HCl was prepared. The stock solution was adjusted to pH 3 by the addition of concentrated HCl. An amount of 100 ml of the stock solution was placed in a beaker with a stirring bar. Anhydrous lanthanum oxycarbonate made as described above, was added to the solution. The amount of anhydrous lanthanum oxycarbonate was such that the amount of La in suspension was 3 times the stoichiometric amount needed to react completely with the phosphate. Samples of the suspension were taken at intervals, through a filter that separated all solids from the liquid. The liquid sample was analyzed for phosphorous.
as §2, with “reactivity of the lanthanum compound” for “reactivity of this lanthanum compound”, “stirring bar. La2CO5 powder, made as” for “stirring bar. Anhydrous lanthanum oxycarbonate made as”, “amount of lanthanum oxycarbonate” for “amount of anhydrous lanthanum oxycarbonate”, “taken at intervals through a” for “taken at intervals, through a”

[2] = binding efficiency test, spiked water; conditions: 0.50 g in 30.0 ml spike solution, approximately 1 mg/l of each element, 18 hrs, room temperature
Method: Tests were run to determine the binding efficiency of eight different compounds for twenty-four different elements.
The main objective of the tests was to investigate the efficiency at which the compounds bind arsenic and selenium, in view of their use in removing those elements from drinking water. Twenty-one different anions were also included to explore further possibilities. The tests were performed as follows:
The compounds given in Table 6 were added to water and a spike and were vigorously shaken at room temperature for 18 hrs. The samples were filtered and the filtrate analyzed for a suite of elements including Sb, As, Be, Cd, Ca, Cr, Co, Cu, Fe, Pb, Mg, Mn, Mo, Ni, Se, Tl, Ti, V, Zn, Al, Ba, B, Ag, and P.
2. Add standard solutions of the elements given above to make solutions containing approximately 1 mg/l of each element.
1. Weigh 0.50 g of each compound into its own 50 ml centrifuge tube.
2. Add 30.0 ml of the spike solution to each.
3. Cap tightly and shake vigorously for 18 hrs.
4. Filter solution from each centrifuge tube through 0.2 µm syringe filter. Obtain about 6 ml of filtrate.
5. Dilute filtrates 5:10 with 2% HNO3. Final Matrix is 1% HNO3.

[3] = specific surface area by the BET method; assay type: physicochemical
Method: For each sample, the surface area measured by the BET method and the fraction of phosphate remaining after 10 min of reaction have been tabulated. […] The rate constant k1 is defined by the following equation: d[PO4]/dt=−k1[PO4]
An aqueous HCl solution having a volume of 334.75 ml and containing LaCl3 (lanthanum chloride) at a concentration of 29.2 wt % as La2O3 was added to a 4 liter beaker and heated to 80° C. with stirring. The initial pH of the LaCl3 solution was 2.2. Two hundred and sixty five ml of an aqueous solution containing 63.59 g of sodium carbonate (Na2CO3) was metered into the heated beaker using a small pump at a steady flow rate for 2 hours. Using a Buchner filtering apparatus fitted with filter paper the filtrate was separated from the white powder product. The filter cake was mixed four times, each with 2 liters of distilled water and filtered to wash away the NaCl formed during the reaction. The washed filter cake was placed into a convection oven set at 105° C. for 2 hours or until a stable weight was observed. […] The surface area of the product was determined by the BET method. The test was repeated 3 times and slightly different surface areas and different reaction rates were obtained as shown in Table 1.

[4] = after 10 min, pH 3, La 3 times the stoichiometric amount

Row | Structure (SMILES) | % Analyte Removed As [2] | % Analyte Removed Be [2] | % Analyte Removed Ca [2] | % Analyte Removed Cd [2] | % Analyte Removed Co [2] | % Analyte Removed Cr [2] | % Analyte Removed Cu [2] | % Analyte Removed Fe [2] | % Analyte Removed Mg [2] | % Analyte Removed Mn [2] | % Analyte Removed Pb [2] | % Analyte Removed Sb [2] | Initial 1st order rate constant k1 [1] | Fraction of PO4 remaining after 10 min [1] | BET surface area [3] | further results
1 | O.O.O.O.O=C([O-])[O-].O=C([O-])[O-].O=C([O-])[O-].[La+3].[La+3] [La2(CO3)3•4H2O, reference compound] | 25% | 41% | 28% | 37% | 20% | 94% | 0% | 56% | 0% | 20% | 90% | 84% |  |  |  | rate of removal of phosphate compared with LaOCl of Example 1 [1]: faster at the beginning but slower after about 3 minutes; capacity of phosphate removal (PO4 removed/g of La compound) [1, 4]: 45 mg PO4/g; phosphate in solution removed [1, 4]: 38%; % Analyte Removed As ([2]; listed as Commercial lanthanum carbonate): less effective
2 | [La+3].[La+3].[O-2].[O-2].[O-2] [La2O3] | 85% | 97% | 21% | 95% | 69% | 100% | 89% | 92% | 0% | 94% | 92% | 89% |  |  |  | 
3 | [O]=[La][Cl] [LaOCl, lanthanum oxychloride] | 76% | 89% | 0% | 46% | 28% | 100% | 88% | 100% | 0% | 28% | 99% | 86% |  |  |  | relationship between the amount of phosphate bound or absorbed and time ([1]; compared with commercial hydrated lanthanum carbonates): closer to linear
4 | O=C([O-])[O-].[La+3].[OH-] [Sample 1, LaCO3OH] |  |  |  |  |  |  |  |  |  |  |  |  | 0.949 min⁻¹ | 0.130 | 41.3 m^2/g | 
5 | O=C([O-])[O-].[La+3].[OH-] [Sample 2, LaCO3OH] |  |  |  |  |  |  |  |  |  |  |  |  | 0.929 min⁻¹ | 0.153 | 35.9 m^2/g | 
6 | O=C([O-])[O-].[La+3].[OH-] [Sample 3, LaCO3OH] |  |  |  |  |  |  |  |  |  |  |  |  | 0.837 min⁻¹ | 0.171 | 38.8 m^2/g | 
7 | O=C([O-])[O-].[La+3].[La+3].[O-2].[O-2] [Sample 4, La2CO5] |  |  |  |  |  |  |  |  |  |  |  |  | 0.545 min⁻¹ | 0.275 | 25.6 m^2/g | 
8 | O=C([O-])[O-].[La+3].[La+3].[O-2].[O-2] [Sample 5, La2O2CO3] |  |  |  |  |  |  |  |  |  |  |  |  | 0.483 min⁻¹ | 0.278 | 18 m^2/g | 
9 | O=C([O-])[O-].[La+3].[La+3].[O-2].[O-2] [Sample 6, La2CO5] |  |  |  |  |  |  |  |  |  |  |  |  | 0.391 min⁻¹ | 0.308 | 18.8 m^2/g | 
10 | O=C([O-])[O-].[La+3].[La+3].[O-2].[O-2] [Sample 7, La2O2CO3] |  |  |  |  |  |  |  |  |  |  |  |  | 0.36 min⁻¹ | 0.327 | 16.5 m^2/g | 
11 | O=C([O-])[O-].[La+3].[La+3].[O-2].[O-2] [Sample 8, La2CO5] |  |  |  |  |  |  |  |  |  |  |  |  | 0.434 min⁻¹ | 0.483 | 11.9 m^2/g | 
12 | O.O=C([O-])[O-].O=C([O-])[O-].O=C([O-])[O-].[La+3].[La+3] [Sample 10, La2(CO3)3•1H2O, reference compound] |  |  |  |  |  |  |  |  |  |  |  |  | 0.094 min⁻¹ | 0.790 | 2.9 m^2/g | rate of removal of phosphate compared with LaOCl of Example 1 [1]: faster at the beginning but slower after about 3 minutes
13 | O=C([O-])[O-].O=C([O-])[O-].[Ti+4] [Ti(CO3)2, Ti carbonate] | 93% | 100% | 99% | 100% | 99% | 99% | 98% | 100% | 79% | 100% | 98% | 96% |  |  |  | % Analyte Removed As ([2]; listed as compound 5): most efficient
14 | [O]=[Ti]=[O] [TiO2] | 93% | 8% | 0% | 4% | 0% | 6% | 11% | 49% | 0% | 1% | 97% | 96% |  |  |  | % Analyte Removed As ([2]; listed as compound 6): most efficient
